These results are taken from patent US7910579B2, “Benzoxazole derivatives” (Tohoku University, priority 2006, dated 2011).

Like-named read-outs stand apart in the source and are kept apart here.

A short description of one data set: Acute Toxicity Test. The format is in vivo. Conditions: Crj:CD1 male mice, tail vein, observed for 7 days. Here is the method: The compounds of the invention were tested for their acute toxicity through intravenous administration thereof to mice. Four Crj:CD1 male mice formed one test group, and some test groups of those mice were used (the mean body weight of the mice of each group was from 31 to 32 g). A test compound was dissolved in a mixture of 1 N HCl, polyethylene glycol-400 and distilled water, or dissolved in DMSO, and then diluted with distilled water. This was administered to each mouse via its tail vein.

The nature of data set [1]: Brain Permeability Test Through HPLC. The format is in vivo. Conditions: mice, 2 minutes after intravenous administration. On the procedure: A compound of the invention was intravenously administered to mice, and tested for its in-vivo brain permeability in the mice.
(1) Slc:ICR mice (by Nippon SLC) (body weight, 30 to 40 g; n=3) were used.
(2) A test compound was dissolved in a mixture of 5% Tween 80-5% ethyl alcohol-5% 1 N HCl-physiological saline water, and injected into the test mouse via its tail vein. Two minutes after the administration, the blood was collected from the test mouse under ether anesthesia via its abdominal aorta using a heparin-steeped syringe, and the brain material was collected from it.
(3) After collected, the blood was centrifuged at 4° C. and 14,000 rpm for 10 minutes, and the supernatant was stored at −80° C. as plasma. After collected, the brain material (including the cerebellum) was stored at −80° C.
(4) 0.3 ml of acetonitrile was added to 0.1 ml of the plasma, then vortexed, and centrifuged at 4° C. and under 10,000 G for 5 minutes. After centrifuged, 0.2 ml of the resulting supernatant was transferred into Mini-Uniprep (Whatman), then 0.2 ml of 20 mM phosphate buffer was added to it and filtered. 0.2 ml of the resulting filtrate was analyzed through HPLC (Shiseido Nanospace SI-2; pump, 3001; UV-VIS detector, 3002; column thermostat, 3004; fluorescence detector, 3013).
(5) 2 ml of methanol was added to the brain, homogenized, and centrifuged at 4° C. and 3000 or 4000 rpm for 10 minutes. After centrifuged, 500 μl of the resulting supernatant was diluted 10-fold with 20 mM phosphate buffer. (i) 2 to 3 ml of acetonitrile, (ii) 2 to 5 ml of methanol and (iii) 4 to 6 ml of ultra-pure water were led through a cartridge for solid-phase extraction (J. T. Baker Speedisk) in that order, and the 10-fold diluted supernatant solution was led through it. Via an empty syringe, air was applied to the cartridge for solid-phase extraction, two or three times to remove water, and then this was eluted with about 500 μl of acetonitrile or methanol, and the eluate was diluted 2-fold with 20 mM phosphate buffer. 0.2 ml of the resulting solution was analyzed through HPLC.
(6) The test compound content in the plasma and in the brain was determined relative to the dose of the compound (% ID (injected dose)/g or ml).

The subject of data set [2] is histidine-requiring Salmonella typhimurium TA100 and TA98 strains. Put plainly: Mutagenicity Test (reverse mutation test). It is filed as cell-based. On the procedure: In view of their use, it is desirable that the compounds of the invention have no mutagenicity or have little mutagenicity to a level causing no problem. For investigating the gene mutagenesis of the compounds of the invention, herein carried out was a reverse mutation test with histidine-requiring Salmonella typhimurium TA100 and TA98 strains. Two tests were carried out. One is a test for dose determination test; and the other is for mutagenicity.
The test methods and the mutagenicity of the compounds of the invention are mentioned below. In the dose determination test, six doses of 0.160, 0.800, 4.00, 20.0, 100 and 500 μg/plate (common ratio 5) were tried.
As a result of the dose determination test, when the mutagenicity of the test compound was admitted, then the actual test for mutagenicity was carried out, using the dose capable of giving an accurate dose-reaction curve. When no mutagenicity of the test compound was admitted in the dose determination test and when the growth inhibition of the test cells was admitted therein, then the dose to present the growth inhibition was taken as the maximum dose; and when the growth inhibition was not admitted, then a dose of 5000 μg/plate was taken as the maximum dose. With that, the actual test for mutagenicity was carried out on the level of 6 doses (common ratio 2).
First, a test compound was dissolved or suspended in DMSO, then diluted in order to prepare test compound liquids having a varying concentration.
100 μl of a test compound liquid or a negative control (DMSO) solution was put into a sterilized test tube. Then, for the case in the absence of a metabolic activation system (−S9mix), 500 μl of 0.1 mol/liter sodium-phosphate buffer (pH 7.4) was added to it; and for the case in the presence of a metabolic activation system (+S9mix), 500 μl of S9mix was added to it.
Next, 100 μl of the test strain suspension that had been cultivated with shaking at 37° C. for 8 hours was added to it, and preincubated in a shaking thermostat at 37° C. for 20 minutes. After shaken, 2 ml of top agar was added to it, and the contents were mixed.
Next, the mixture was poured onto a minimal glucose agar plate medium (plate) and spread uniformly thereon, then the top agar was solidified, and the plate was transferred into a thermostat and incubated at 37° C. for 48 hours.
Then, the number of the colonies grown through reverse mutation was counted.
For counting it, […]. After area correction and miss-counting correction, the number of the colonies was computed. When the colony analyzer could not be used owing to the deposition of the test compound or the cell growth inhibition, then the number of the colonies was counted with the naked eye.
In case where the number of the colonies through reverse mutation increased two times or more that of the negative control and where the dose dependency or the reproducibility of the increase was admitted, then the tested sample was decided as positive. When the sample was is decided as positive, then the relative activity that indicates the relative comparative value of the intensity of the mutagenicity of the test compound was obtained according to the following formula: Relative Activity={(number of colonies per plate having the concentration)−(number of colonies per negative control plate)}/the value of concentration (mg/plate).

The target of another data set is T1, Amyloid β protein 1-40 (Homo sapiens, UniProt P05067).
T1 construct: Amyloid β protein 1-40 (bought from Peptide Laboratory); purchased Peptide Laboratory
T1 sequence (P05067 672-711): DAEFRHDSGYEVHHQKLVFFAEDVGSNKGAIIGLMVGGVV
As to the kind of experiment: Fluorescence Congo Red Method. The conditions noted are these: 1 h, compound 10 μM, amyloid β protein 5 μM. The format is binding. Here is the method:
Next described is a screening method for the compounds of the invention. Some of the compounds of the invention could not be screened according to a Thioflavin T method, since their fluorescence wavelength overlaps with that of Thioflavin T. For such compounds, the following novel screening method was introduced. (1) Amyloid β protein 1-40 (bought from Peptide Laboratory) was dissolved in a phosphate buffer (pH 7.4) and left at 37° C. for 4 days. (2) 50 μl of Congo red dissolved in the buffer was applied to a 96-well microplate (final concentration, 0.1, 0.3, 1 μM). (3) 100 μl of amyloid β protein was added to it (final concentration 5 μM), and left as such for 30 minutes. (4) 100 μl of a test compound dissolved in the buffer was added to it (final concentration, 10 μM, and left as such for 60 minutes. (5) Using a fluorescence microplate reader (Spectra Max 190 by Molecular Device), the sample was analyzed at the optimum exciting wavelength and the test wavelength that had been previously determined. (6) The fluorescence intensity in the presence of the test compound, amyloid β protein and Congo red is represented by A; that in the presence of the test compound and Congo red is by B; that in the presence of the test compound and amyloid β protein is by C; and that in the presence of only the test compound is by D. The β structure recognition of the test compound is computed according to the following formula: β structure recognition (%) of test compound={(A−B)/(C−D)}×100. (7) It may be said that the test compound having a higher β structure recognition percentage may have higher binding specificity to amyloid β protein.

Data set [3] has as its target T2, amyloid β protein in the brain section of an Alzheimer disease patient (Homo sapiens, UniProt P05067).
T2 construct: from tissue; host or cells: paraffin-embedded temporal lobe and hippocampus of Alzheimer disease patients
As to the kind of experiment: Staining test on a brain section of an Alzheimer disease patient: amyloid β protein. It is filed as binding. Conditions: 100 μM solution in 50% ethanol, 10 minutes, paraffin brain section. The text has this:
(1) Brain specimens at the temporal lobe and the hippocampus of patients to which a definitive diagnosis of Alzheimer disease had been given, and those of normal senile persons were used. The specimens were given by our coworker, Fukushimura Hospital, Longevity Medicine Institute, and we were given their consent of use of the specimens for our study purpose by the bereaved of the patients (Fukushimura Hospital Ethical Review Board Approval No. 20).
(2) The paraffin-embedded brain tissue was cut Into slices having a thickness of 6 μm or 8 μm, and extended and dried on a slide. The paraffin brain section was steeped for paraffin removal in xylene twice for 10 minutes, 100% ethanol twice for 5 minutes, 90% ethanol for 5 minutes and running water for 10 minutes in that order.
(3) For pretreatment prior to the staining treatment with a compound of the invention, the sections were steeped for autofluorescence removal with lipofuscin. First, the paraffin-removed sections were dipped in 0.25% KMnO4 solution for 20 minutes. These were washed with PBS, twice for 2 minutes, then dipped in 0.1% K2S2O5/oxalic acid solution for about 5 seconds, and then further washed with PBS, three times for 2 minutes.
(4) About 150 μl of a 100 μM solution of a compound of the invention dissolved in 50% ethanol was dropwise applied to the section and reacted for 10 minutes. After dipped five times in tap water, the section was entrapped with Fluor Save Reagent (Calbiochem), and analyzed through microscopy with a fluorescence microscope (Nikon, Eclipse 80i). The images were taken with a digital camera (Nikon Dxm 1200F or Photometrics' Cool SNAP ES).
(1) After paraffin removal, the sections were washed in distilled water, twice for 2 minutes. Then, using ImmunoPen, the tissue was marked with a surrounding line; about 150 μl of formic acid was dropwise applied to the section and statically left at room temperature for 5 minutes. The section was washed with tap water for 5 minutes, then dipped in cold PBS-Tween 20 for 2 minutes, and thereafter about 150 μl of 0.05% trypsin solution was dropwise applied to it and reacted at 37° C. for 15 minutes.
(2) In an ice bath, this was washed with cold PBS-Tween 20, twice for 5 minutes, and then 2 drops of blocking serum were applied to it and reacted at 37° C. for 30 minutes. Excess water was removed, and then about 150 μl of a specific antibody to amyloid β protein, 6F/3D (by DAKO, 1/50 dilution) was dropwise applied to it, and reacted at 37° C. for 1 hour.
(3) Further, this was washed with cold PBS-Tween 20, 5 times for 2 minutes, and then 2 drops of an anti-mouse IgG (H+L), goat, biotin-binding solution were applied to it and reacted at 37° C. for 1 hour. Then, this was washed with cold PBS-Tween 20, three times for 2 minutes, and 2 drops of an ABC solution (streptoavidin-biotin-peroxidase composite solution) were applied to it, and left statically as such for 30 minutes. Again this was washed with cold PBS-Tween 20, three times for 2 minutes, and then about 150 μl of a DAB solution (10 mg of DAB was dissolved in 20 ml of 0.05 mol/liter tris-HCl buffer, and just before use, 100 μl of 3% hydrogen peroxide water was added to it) was dropwise applied to it for sufficiently staining it. Then, this was washed with distilled water for 1 minute to stop the reaction, then entrapped and observed through microscopy.

[4] abbreviates: Congo red 0.1 μM, read-out: Binding Percentage of Compound in the presence of 0.1 μM CR.
The mark [5] stands for this setting: Congo red 0.3 μM, read-out: Binding Percentage of Compound in the presence of 0.3 μM CR.
[6] abbreviates: Congo red 1 μM, read-out: Binding Percentage of Compound in the presence of 1 μM CR.

T2 sequence (P05067 672-713 limits assumed): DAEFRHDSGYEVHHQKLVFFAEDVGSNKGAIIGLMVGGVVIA

Regarding `CN1CCN(c2ncc(/C=C/c3nc4ccc(OC(CO)CF)cc4o3)s2)CC1` (stereo not shown) [THK-707, (E)-6-[(1-fluoromethyl-2-hydroxy)ethoxy]-2-[2-[2-(4-methylpiperazin-1-yl)thiazol-5-yl]ethenyl]benzoxazole], in “Acute Toxicity Test”, the “Maximum Permissible Dose (mg/kg, intravenous administration)” value (“Maximum Permissible Dose” for short) is listed as “≧10 mg/kg”. In addition, the “Brain Permeability: Brain” value in data set [1] (brain) was 4.4 % ID/g or ml. Moreover, the “Brain Permeability: Plasma” value in data set [1] (plasma) was 0.58 % ID/g or ml. Further, in data set [2] (in the presence of S9mix), the “Relative activity (mutagenicity)” value is given as “weak”. Besides, in data set [2] (reverse mutation test, +S9mix), the “Relative Activity in the presence of S9Mix” value is given as “minus”. For the same molecule, in data set [2] (reverse mutation test, -S9mix), the “Relative Activity in the absence of S9Mix” value is recorded as 264. For the same molecule, the activity at 10 µM at Amyloid β protein 1-40 (setting [4]) came out at 66.8%; at Amyloid β protein 1-40 (setting [5]), 36.4%; on Amyloid β protein 1-40 (setting [6]), 29.7%.
Take `OCC(CF)Oc1ccc2nc(/C=C/c3cnc(N4CCCOC4)s3)oc2c1` (stereo not shown) [THK-757, (E)-6-[(1-fluoromethyl-2-hydroxy)ethoxy]-2-[2-[2-([1,3]oxadinan-3-yl)-thiazol-5-yl]ethenyl] benzoxazole]: the “Maximum Permissible Dose” value in the data set “Acute Toxicity Test” is reported as “≧10 mg/kg”. Moreover, the results for the activity at 10 µM at Amyloid β protein 1-40 (setting [4]), on Amyloid β protein 1-40 (setting [5]) and at Amyloid β protein 1-40 (setting [6]) were 52.4%, 24.8% and 10.3%, respectively.
As for `OCC(CF)Oc1ccc2nc(/C=C/c3cnc(N4CCCCCC4)s3)oc2c1` (stereo not shown) [THK-765, (E)-6-[(1-fluoromethyl-2-hydroxy)ethoxy]-2-[2-[2-(homopiperidin-1-yl)thiazol-5-yl]ethenyl]benzoxazole], the “Maximum Permissible Dose” value in “Acute Toxicity Test” is “≧10 mg/kg”. In addition, the activity at 10 µM came out at 71.2% at Amyloid β protein 1-40 (setting [4]), 41.3% at Amyloid β protein 1-40 (setting [5]) and 23% at Amyloid β protein 1-40 (setting [6]).
For `OCC(CF)Oc1ccc2nc(/C=C/c3cnc(N4CCCOCC4)s3)oc2c1` (stereo not shown) [THK-766, (E)-6-[(1-fluoromethyl-2-hydroxy)ethoxy]-2-[2-[2-homomorpholinothiazol-5-yl)ethenyl]benzoxazole], the “Binding to (staining of) amyloid β protein in the brain section of an Alzheimer disease patient” value in data set [3] is given as “white space arrow indicates amyloid β protein”. For the same molecule, in “Acute Toxicity Test”, the “Maximum Permissible Dose” value is “≧10 mg/kg”. Further, the activity at 10 µM amounted to 61% at Amyloid β protein 1-40 (setting [4]), 21.5% at Amyloid β protein 1-40 (setting [5]) and 11.2% on Amyloid β protein 1-40 (setting [6]).
